According to PMC6092981 (Bioinorganic Chemistry and Applications, 2018):
Structures can show the parent of a compound that is named as a salt. One block for each molecule: values may come before it. Where a SMILES comes first, the peptide text is derived from it. Where no end group is shown, it is not given here. The star is where a group is joined. Cbz = O=C(OCc1ccccc1)*; CH2F = FC*

Key:
Jurkat cells [1] = test: MTT assay of Jurkat cells in the presence of caspase, necroptosis and necrosis inhibitors; assay type: cell-based, human; details: Z-VAD-FMK 15 µM, 24 h, 37°C; for inhibition of cell death induced by 5: necrostatin-1 30 µM, IM-54 10 µM, 1 h pre-incubation, 5 75 µM, MTT
Procedure: Jurkat cells (1.0 × 10^5 cells/mL) were incubated in 10% FCS RPMI 1640 medium (MTG-free) containing a solution Z-VAD-fmk (15 µM)/necrostatin-1 (30 µM)/IM-54 (10 µM)/(under 5% CO2 at 37°C for 1 h in 96-well plates (BD Falcon). Then, Ir complexes (75 µM) were added and incubated under 5% CO2 at 37°C for 24 h, and then 0.5% MTT reagent in PBS buffer (10 µL) was added to the cells and incubated under 5% CO2 at 37°C for 4 h. A formazan lysis solution (10% SDS in 0.01 N HCl) (100 µL) was added, and the resulting solution incubated overnight under the same conditions, followed by measurement of absorbance at 570 nm with a microplate reader (Bio-Rad).

Jurkat cells [2] = test: PI staining microscopy of Jurkat cells with 5 in the presence of inhibitors; assay type: cell-based, human; details: nicardipine 50 µM, verapamil 20 µM, 37°C 1 h, then 5 (35 µM) 24 h
Procedure: The cells were then washed twice with ice-cold PBS containing 0.5% FCS and 0.1% NaN3 and incubated with PI in PBS at room temperature for 10–15 min.

[3] = biological target: DR5 (immobilised on the QCM sensor chip) (UniProt O14763 56-440); test: 27 MHz quartz crystal microbalance (QCM); DR5 immobilised by EDC/NHS on a 3,3'-dithiodipropionic acid layer on the Au electrode, blocked with ethanolamine; analytes added in PBS, 25°C; apparent constants from the decrease in frequency, 1:1 complexation assumed, Kd = 1/Kapp; details: both partners purified

Molecule: CCCCCNC1=C(c2cn(C)c3ccccc23)C(=O)N(C)C1=O [IM-54]
inhibition of cell death induced by 5 (Jurkat cells [1]): negligibly inhibited

Molecule: CN1C(=O)C(Cc2c[nH]c3ccccc23)NC1=S (stereo not shown) [Necrostatin-1]
inhibition of cell death induced by 5 (Jurkat cells [1]): negligibly inhibited

Molecule: COC(=O)C[C@H](NC(=O)[C@H](C)NC(=O)[C@@H](NC(=O)OCc1ccccc1)C(C)C)C(=O)CF [Z-VAD-FMK, Z-Val-Ala-Asp(OMe) fluoromethylketone] (Cbz-Val-Ala-Asp(OMe)-CH2F)
inhibition of cell death induced by 5 (Jurkat cells [1]): negligibly inhibited
inhibition of TRAIL-induced cell death (Jurkat cells [1]; TRAIL 150 ng/mL, MTT and flow cytometry (PI)): almost completely

Molecule: COC(=O)C1=C(C)NC(C)=C(C(=O)OCCN(C)Cc2ccccc2)C1c1cccc([N+](=O)[O-])c1 (stereo not shown) [nicardipine, nicardipine hydrochloride]
inhibition of cell death induced by 5 (Jurkat cells [2]): considerably inhibited

Ka [3]: < 10000 M⁻¹
Kd [3]: > 100 µM
B1: Ir complex 2c (contains a KKGG peptide) (other)
peptide: KKGG
modifications: also: joined to a cyclometalated Ir(III) complex
notes: cationic peptide H2N-KKGG- on the Ir complex
